In patent US20220274967A1, “BCAT MODULATION” (Icagen, LLC, priority 2019, published 2022):
pIC50: −log10 of the molar value. Where two headings read alike, the source gives them in different places.

Assays:
[1] = 3-HIB assay in vitro, direct MS assay of conditioned media; type: cell-based, human; conditions: GM00371 cells, read-out: 3HIB INHIBITION IC50 (μM) MEAN GM00371 cells Direct MS Assay
Protocol: Cell Plating: Cells (Coriell Institute GM00371 cells) were plated (96-well clear bottom sterile plate; Greiner 655098) at 10,000 cells/0.1 mL in Eagle's minimum essential medium (EMEM)/15% FBS (Gibco 16000-044) with a Combi dispenser in a cell culture hood and incubated at 37° C. and 5% CO2 overnight.
Compound Dilution: Compound were prepared as 33.3× intermediate dilution in DMSO in 96 well round polystyrene plates. For 30 μM final maximum start with 30 μL of 10 mM in DMSO. 10-12 1:3 serial dilutions were prepared from left to right (20 μL+40 μL DMSO). A 10× secondary dilution was prepare in EMEM by taking 7.5 μL 33.3× and transfer to replicate 96 well round polystyrene plates and then adding 242.5 μL EMEM A 1× final dilution in EMEM was prepared by taking 50 μL 10× dilution and transferring to replicate 96 well polypropylene assay block (Costar 3956) and adding 450 μL EMEM A control was prepared for maximal compound inhibition by taking 20 μL 10 mM Reference Compound A and adding 40 μL DMSO for a concentration of 3.3 mM To 7.5 μL of the 3.3 mM Reference Compound A solution and added 242.5 μL EMEM to make a 100 μM solution. The subsequent Reference Compound A solution was diluted with EMEM to achieve a final concentration of 10 μM. The structure of Reference Compound A is:
A control was prepared for maximal compound toxicity by taking 7.5 μL Reference Compound B and 242.5 μL EMEM to make […]. 50 μL of that 100 μM Reference Compound B solution was combined with 450 μL EMEM to achieve a concentration of 30 μM. The structure of Reference Compound B is
A DMSO Control was prepared by dilution 7.5 μL with 242.5 μL EMEM and taking 50 μL of the subsequent solution and diluting with 450 μL EMEM.
Compound Treatment: Media was aspirated from the cells and 100 μL of D-PBS (ThermoFisher 14190144) was added and then removed. 100 μL of diluted compound was added to the cells in the place and the cells were incubated at 37° C. and 5% CO2 for 24 hours.
Collection of Conditioned Media: For 3HIB MS detection: 20 μL conditioned media was removed from the cells and was transferred to a labeled replicate 96 well polypropylene assay plate (VWR 62408-946). And the plate was heat sealed and stored at −80° C.
3HIB Derivatization (Generalized SOP): The media collected for 3HIB MS detection was derivatized under the following conditions. Buffer: 0.1M 1-Ethyl-3-(3-dimethylaminopropyl)carbodiimide (EDC) dissolved in 0.1 M 2-(N-morpholino)ethanesulfonic acid ([…]) adjusted to pH 5.6. Buffer prep: weighed 10.6 g MES (Sigma #M-5287) per 500 mL HPLC grade H2O. Stored at 4° C.; 0.1M EDC: Weighed 1.971 g EDC (#E-1769) per 100 mL MES. Adjusted pH to 5.6 with ˜40 drops of 1N NaOH and stored at 4° C. Buffer has a short half-life should be used within two weeks.
Derivatization: To 20 μL sample was added 60 μL 5 uM 3HIB-4C13 internal standard followed by 20 μL EDC in MES and 100 μL MES. The plate was sealed and incubate at 50° C. for […] then centrifuged at 4000 rpm at 6° C. for 10 minutes. LC-MS analysis was then conducted and the data was processed using standard methods.

[2] = target: T1, BCAT1 (Homo sapiens, UniProt P54687); assay: BCAT1 enzyme inhibition (human), Glutamate Glo luminescence; type: biochemical
T1 sequence (P54687 1-386): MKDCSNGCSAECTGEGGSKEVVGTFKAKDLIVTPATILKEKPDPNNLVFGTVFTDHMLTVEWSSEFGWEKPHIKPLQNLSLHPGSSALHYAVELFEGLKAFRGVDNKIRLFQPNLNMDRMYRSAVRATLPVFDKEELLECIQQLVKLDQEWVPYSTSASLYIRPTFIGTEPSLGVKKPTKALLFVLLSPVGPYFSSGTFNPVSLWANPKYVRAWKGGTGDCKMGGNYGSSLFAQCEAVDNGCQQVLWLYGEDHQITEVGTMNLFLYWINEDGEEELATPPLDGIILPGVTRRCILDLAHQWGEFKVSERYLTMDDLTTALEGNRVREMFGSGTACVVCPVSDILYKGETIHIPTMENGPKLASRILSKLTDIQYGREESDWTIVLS
How it was run: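 BCAT1 enzyme (0.06 ug/ml final) was preincubated with compound (3-0.0001 μM, 0.3% DMSO) for 10 or 60 min at room temperature in 50 mM Tris/0.05% TWEEN-20. The reaction then ran 10 min with 300 μM L-leucine and 250 μM alpha-ketoglutaric acid, was acid-quenched, and glutamate was read by luminescence. IC50 came from a 4-parameter fit, normalized to 10 μM VS558CSA inhibition.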

| IC50 ([1]; Homo sapiens, 24 h) [µM] | pIC50 [2] | IC50 ([1]; 24 hours) [µM] | SMILES |
| --- | --- | --- | --- |
| 0.1 to 0.5 | ≤ 6.00 |  | COC(=O)c1ccc2c(c1)nc(-c1ccccn1)n2[C@@H]1CCC[C@H](NC(=O)c2ccc(Br)s2)C1 [Compound 109] |
| 0.5 to 1 | ≤ 6.00 |  | CNC(=O)c1ccc2c(c1)nc(-c1ccccn1)n2[C@@H]1CCC[C@H](NC(=O)c2ccc(C#N)s2)C1 [Compound 112] |
| 0.5 to 1 | ≤ 6.00 |  | CNC(=O)c1ccc2c(c1)nc(-c1ccccc1C)n2[C@H]1CCC[C@@H](NC(=O)c2ccc(C#N)s2)C1 [Compound 134] |
| 0.1 to 0.5 | ≤ 6.00 |  | CNC(=O)c1ccc2c(c1)nc(-c1ccccc1C)n2[C@H]1CCC[C@@H](NC(=O)c2ccc(Br)s2)C1 [Compound 135] |
| < 0.1 | 6.30 to 7.00 |  | CNC(=O)c1ccc2c(c1)nc(-c1ccccc1C#N)n2[C@H]1CCC[C@@H](NC(=O)c2ccc(Br)s2)C1 [Compound 136] |
|  | > 7.00 | 0.1 to 0.5 | CNC(=O)c1ccc2c(c1)nc(-c1ccccc1C#N)n2[C@H]1CCC[C@@H](NC(=O)c2ccc(Br)s2)C1 [Compound 137] |
| ≥ 1 | 6.00 to 6.30 |  | CNC(=O)c1ccc2c(c1)nc(-c1ccccc1C#N)n2[C@H]1CCC[C@@H](NC(=O)c2ccc(C#N)s2)C1 [Compound 138] |
|  | 6.30 to 7.00 | ≥ 1 | CNC(=O)c1ccc2c(c1)nc(-c1ccccc1C#N)n2[C@H]1CCC[C@@H](NC(=O)c2ccc(C#N)s2)C1 [Compound 139] |
| < 0.1 | 6.30 to 7.00 |  | CNC(=O)c1ccc2c(c1)nc(-c1ccccc1F)n2[C@H]1CCC[C@@H](NC(=O)c2ccc(Br)s2)C1 [Compound 145] |
| < 0.1 | 6.00 to 6.30 |  | C#Cc1ccccc1-c1nc2cc(C(=O)NC)ccc2n1[C@H]1CCC[C@@H](NC(=O)c2ccc(Br)s2)C1 [Compound 151] |
| < 0.1 | ≤ 6.00 |  | CNC(=O)c1ccc2c(c1)nc(-c1cccc(F)c1)n2[C@H]1CCC[C@@H](NC(=O)c2ccc(Br)s2)C1 [Compound 154] |
| 0.5 to 1 | 6.30 to 7.00 |  | CNC(=O)c1cc2nc(-c3ccccn3)n([C@H]3CCC[C@@H](NC(=O)c4ccc(Br)s4)C3)c2cc1F [Compound 155] |
| < 0.1 | > 7.00 |  | CNC(=O)c1cc2nc(-c3ccccc3C#N)n([C@H]3CCC[C@@H](NC(=O)c4ccc(Br)s4)C3)c2cc1F [Compound 157] |
| 0.1 to 0.5 | 6.30 to 7.00 |  | CNC(=O)c1ccc2c(c1)nc(-c1ccccc1C=O)n2[C@H]1CCC[C@@H](NC(=O)c2ccc(Br)s2)C1 [Compound 161] |
| 0.1 to 0.5 | ≤ 6.00 |  | CNC(=O)c1ccc2c(c1)nc(-c1cccc(F)c1O)n2[C@H]1CCC[C@@H](NC(=O)c2ccc(Br)s2)C1 [Compound 163] |
| 0.1 to 0.5 | 6.30 to 7.00 |  | CNC(=O)c1ccc2c(c1)nc(-c1c(O)cccc1F)n2[C@H]1CCC[C@@H](NC(=O)c2ccc(Br)s2)C1 [Compound 184] |
| < 0.1 | > 7.00 |  | CNC(=O)c1cc2nc(-c3ccccc3F)n([C@H]3CCC[C@@H](NC(=O)c4ccc(Br)s4)C3)c2cc1F [Compound 207] |
| ≥ 1 | 6.30 to 7.00 |  | CNC(=O)c1cc2nc(-c3ccccc3C)n([C@H]3CCC[C@@H](NC(=O)c4ccc(Br)s4)C3)c2cc1F [Compound 208] |
| 0.1 to 0.5 | 6.30 to 7.00 |  | COC(=O)c1cc2nc(-c3ccccn3)n([C@@H]3CCC[C@H](NC(=O)c4ccc(Br)s4)C3)c2cn1 [Compound 291] |
| 0.1 to 0.5 | 6.30 to 7.00 |  | CNC(=O)c1cc2nc(-c3ccccn3)n([C@H]3CCC[C@@H](NC(=O)c4ccc(Br)s4)C3)c2cn1 [Compound 292] |
